Results taken from the NIST ThermoML archive (doi:10.1021/acs.jced.8b00326).
Numbers after ± are expanded uncertainties.

Test: mn = molality of the nth substance listed, in mol/kg
Details: 100 kPa, Liquid, Alternating current cell with electrodes

O [water] + CCCCCCCCCCCCCCCC[n+]1ccccc1.[Cl-]
electrical conductivity (293.15 K, m2 = 0): 0.0005 S/m | electrical conductivity (298.15 K, m2 = 0): 0.00053 S/m | electrical conductivity (303.15 K, m2 = 0): 0.00057 S/m | electrical conductivity (308.15 K, m2 = 0): 0.00058 S/m

CCCCCCCCCCCCCCCC[n+]1ccccc1.[Cl-] [cetylpyridinium chloride] + O
electrical conductivity (293.15 K, m1 = 0.0002): 0.00277 ± 0.0012 S/m | electrical conductivity (293.15 K, m1 = 0.0004): 0.00503 ± 0.0012 S/m | electrical conductivity (293.15 K, m1 = 0.0006): 0.0073 ± 0.0012 S/m | electrical conductivity (293.15 K, m1 = 0.0008): 0.00906 ± 0.0011 S/m | electrical conductivity (293.15 K, m1 = 0.001): 0.0102 ± 0.001 S/m | electrical conductivity (293.15 K, m1 = 0.0012): 0.0112 ± 0.001 S/m | electrical conductivity (293.15 K, m1 = 0.0014): 0.012 ± 0.001 S/m | electrical conductivity (293.15 K, m1 = 0.0016): 0.0128 ± 0.001 S/m | electrical conductivity (293.15 K, m1 = 0.0018): 0.0138 ± 0.001 S/m | electrical conductivity (293.15 K, m1 = 0.002): 0.0145 ± 0.001 S/m | electrical conductivity (298.15 K, m1 = 0.0002): 0.00283 ± 0.0013 S/m | electrical conductivity (298.15 K, m1 = 0.0004): 0.00513 ± 0.0013 S/m | electrical conductivity (298.15 K, m1 = 0.0006): 0.00755 ± 0.0013 S/m | electrical conductivity (298.15 K, m1 = 0.0008): 0.00982 ± 0.0011 S/m | electrical conductivity (298.15 K, m1 = 0.001): 0.0109 ± 0.001 S/m | electrical conductivity (298.15 K, m1 = 0.0012): 0.0118 ± 0.001 S/m | electrical conductivity (298.15 K, m1 = 0.0014): 0.0128 ± 0.001 S/m | electrical conductivity (298.15 K, m1 = 0.0016): 0.0139 ± 0.001 S/m | electrical conductivity (298.15 K, m1 = 0.0018): 0.0149 ± 0.001 S/m | electrical conductivity (298.15 K, m1 = 0.002): 0.0158 ± 0.0011 S/m | electrical conductivity (303.15 K, m1 = 0.0002): 0.00302 ± 0.0013 S/m | electrical conductivity (303.15 K, m1 = 0.0004): 0.00574 ± 0.0013 S/m | electrical conductivity (303.15 K, m1 = 0.0006): 0.00831 ± 0.0013 S/m | electrical conductivity (303.15 K, m1 = 0.0008): 0.011 ± 0.0013 S/m | electrical conductivity (303.15 K, m1 = 0.001): 0.0134 ± 0.0012 S/m | electrical conductivity (303.15 K, m1 = 0.0012): 0.0148 ± 0.0011 S/m | electrical conductivity (303.15 K, m1 = 0.0014): 0.016 ± 0.0011 S/m | electrical conductivity (303.15 K, m1 = 0.0016): 0.0172 ± 0.0011 S/m | electrical conductivity (303.15 K, m1 = 0.0018): 0.0184 ± 0.0011 S/m | electrical conductivity (303.15 K, m1 = 0.002): 0.0194 ± 0.001 S/m | electrical conductivity (308.15 K, m1 = 0.0002): 0.00337 ± 0.0014 S/m | electrical conductivity (308.15 K, m1 = 0.0004): 0.00645 ± 0.0014 S/m | electrical conductivity (308.15 K, m1 = 0.0006): 0.00954 ± 0.0014 S/m | electrical conductivity (308.15 K, m1 = 0.0008): 0.0126 ± 0.0014 S/m | electrical conductivity (308.15 K, m1 = 0.001): 0.0155 ± 0.0012 S/m | electrical conductivity (308.15 K, m1 = 0.0012): 0.017 ± 0.0011 S/m | electrical conductivity (308.15 K, m1 = 0.0014): 0.0183 ± 0.0011 S/m | electrical conductivity (308.15 K, m1 = 0.0016): 0.0196 ± 0.0011 S/m | electrical conductivity (308.15 K, m1 = 0.0018): 0.021 ± 0.0011 S/m | electrical conductivity (308.15 K, m1 = 0.002): 0.0223 ± 0.0011 S/m
